Where “and” joins values, the source holds several entries; their conditions need not be identical. Identical values can stand only once. Like-named read-outs stand apart in the source and are kept apart here. Peptide text beside a SMILES is read from it.
How the values were obtained:
[1] = Pharmacokinetics of repeated subcutaneous injection of F3 (10.0 mg/kg daily, 14 days); type: in vivo, Sprague Dawley rats; settings: for accumulation in plasma: after 14 days of repeated s.c. injection at 10.0 mg/kg; for CL/F: read-out: Cl_F_obs (clearance rate) (converted)
Experimental: The first day of F3 administration was recorded as day 1. At least 0.5 ml blood samples were obtained alternatively from 3M/3F rats at pre- and post-F3 injection time periods (0, 0.5, 1, 2, 4, 6, 8, and 24 hr).
The concentration of F3 in rat plasma was determined by liquid chromatography-tandem mass spectrometry, using the method established by Kanglong Huacheng Co., Ltd. The analyte was assayed by liquid chromatography coupled with the tandem mass spectrometry (LC-MS/MS) method. The LC-MS/MS system consisted of a Shimadzu HPLC system (Kyoto, Japan) and an LCMS-8060 instrument (serial no. 011105500332 AE). The following were the LC conditions: column, HALO ES-C18 2.7 µ C18 160A (50 × 2.1 mm); gradient elution at 0.5 mL/min with 5% acetonitrile in water containing 0.1% formic acid or 95% acetonitrile in water containing 0.1% formic acid; and injection volume of 10 µL. A multiple reaction monitoring (MRM) method was selected for quantitative analysis. For analyte and internal standard, the optimum transitions were 519.50 > 129.15 (five charges) and 649.15 > 120.10 (four charges), 393.20 > 373.25, and 237.15 > 194.15, respectively. The instrumental parameters were set as follows: nebulizing gas flow was 3 L/min; heating gas flow was 10 L/min; interface temperature was 300°C; DL temperature was 250°C; and heat block temperature was 400°C.
PK parameters were estimated by a noncompartmental model with the calculation model of “Linear Trapezoidal Linear Interpolation” using WinNonlin (Phoenix TM, version 8.1). If the plasma F3 was detected, the following pharmacokinetic parameters were measured and calculated: Cmax (maximum blood concentration), Tmax (peak time), T1/2 (elimination half-life), AUC (area under plasma concentration-time curve), Vz_F_obs (apparent distribution volume), Cl_F_obs (clearance rate), and MRTInf_obs (mean residence time).

[2] = test system: SD rats; experiment: Histopathologic examination (H&E) of vital organs; type: in vivo, Sprague Dawley rats; settings: s.c. 10.0 mg/kg daily x14 d
Excerpt: After blood was collected at the predetermined time points, all rats were euthanized and subjected to a comprehensive general autopsy, which included a thorough examination of the external surface of the body, all foramen, cranial cavity, external surface of the brain, chest, abdomen, pelvic cavity, viscera, cervix, and genitalia. The adrenal gland, brain (brain, cerebellum, and brain stem), epididymis, heart, kidney, liver, ovary, spleen, testis, thymus, thyroid gland, and uterus were carefully collected, weighed, and documented before being kept in 10% neutral formalin buffer (10% NBF).
The H&E staining was followed as reported elsewhere. Following formalin fixation, the important tissues were dehydrated, stained with hematoxylin (about 15 minutes) and eosin (1–3 minutes), dehydrated again with gradient alcohol, clarified in xylene, and then examined and recorded under the microscope.

[3] = female SD rats, s.c. 10.0 mg/kg daily x14 d, 14th dose, plasma, LC-MS/MS
[4] = female, Sprague-Dawley, rat, plasma, sc, 10 mg/kg, female SD rats, s.c. 10.0 mg/kg daily x14 d, 1st dose, LC-MS/MS
[5] = female, Sprague-Dawley, rat, plasma, sc, 10 mg/kg, female SD rats, s.c. 10.0 mg/kg daily x14 d, 14th dose, LC-MS/MS
[6] = male, Sprague-Dawley, rat, plasma, sc, 10 mg/kg, male SD rats, s.c. 10.0 mg/kg daily x14 d, 1st dose, LC-MS/MS
[7] = male, Sprague-Dawley, rat, plasma, sc, 10 mg/kg, male SD rats, s.c. 10.0 mg/kg daily x14 d, 14th dose, LC-MS/MS

**Q.** With `CC[C@H](C)[C@H](NC(=O)[C@H](CO)NC(=O)CNC(=O)[C@H](CC(C)C)NC(=O)[C@@H](NC(=O)CNC(=O)[C@H](Cc1ccccc1)NC(=O)[C@H](CC(C)C)NC(=O)CN)C(C)C)C(=O)N[C@@H](C)C(=O)N[C@@H](CCCCN)C(=O)N[C@@H](Cc1c[nH]cn1)C(=O)N[C@H](C(=O)N[C@@H](CC(C)C)C(=O)N1CCC[C@H]1C(=O)N[C@@H](Cc1c[nH]cn1)C(=O)N[C@H](C(=O)N[C@H](C(=O)N1CCC[C@H]1C(=O)N[C@H](C(=O)N[C@H](C(=O)N[C@@H](C)C(=O)N[C@@H](CCC(=O)O)C(=O)N[C@@H](CCCCN)C(=O)N[C@@H](CC(C)C)C(N)=O)[C@@H](C)CC)C(C)C)C(C)C)C(C)C)C(C)C` [F3, Caerin 1.9] (H-GLFGVLGSIAKHVLPHVVPVIAEKL-NH2) as the compound, how does the accumulation in plasma ([1]; SD rats, 10 mg/kg) read?
**A.** no F3 accumulation

**Q.** And the accumulation in plasma ([1]; SD rats, listed as Caerin 1.9, 10 mg/kg)?
**A.** no accumulation

**Q.** And the Tmax ([1]; SD rats, s.c., over single 1.0 mg/kg and repeated 10.0 mg/kg groups)?
**A.** between half an hour and one hour

**Q.** What about the AUC_%Extrap_obs ([1]; female SD rats, s.c. 10.0 mg/kg daily x14 d, 1st dose, plasma, LC-MS/MS) of the same compound?
**A.** 1.48%

**Q.** What about the T max ([1]; female SD rats, s.c. 10.0 mg/kg daily x14 d, 1st dose, plasma, LC-MS/MS, 10 mg/kg) of the same compound?
**A.** 1 h and 1.00 h

**Q.** What about the AUC_%Extrap_obs [1, 3] of the same compound?
**A.** 0.658%

**Q.** What about the T max [1, 3] of the same compound?
**A.** 1.00 h

**Q.** What about the AUC(0-inf) ([1]; female, Sprague Dawley, rat, plasma, sc, 10 mg/kg, female SD rats, s.c. 10.0 mg/kg daily x14 d, 14th dose, LC-MS/MS) of the same compound?
**A.** 1110 ng·h/mL

**Q.** What about the AUC(0-inf) [1, 4] of the same compound?
**A.** 751 ng·h/mL

**Q.** What about the AUC(0-t) [1, 4] of the same compound?
**A.** 740 ng·h/mL

**Q.** What about the Cmax [1, 4] of the same compound?
**A.** 256 ng/mL

**Q.** What about the half-life [1, 4] of the same compound?
**A.** 1.33 h

**Q.** What about the CL/F ([1]; female, Sprague-Dawley, rat, plasma, sc, 10 mg/kg, female SD rats, s.c. 10.0 mg/kg daily x14 d, 1st dose, plasma, LC-MS/MS) of the same compound?
**A.** 222 mL/min/kg

**Q.** And the MRT ([1]; female, Sprague-Dawley, rat, plasma, sc, 10 mg/kg, female SD rats, s.c. 10.0 mg/kg daily x14 d, 1st dose, plasma, LC-MS/MS, read-out: MRTInf_obs (mean residence time))?
**A.** 2.96 h

**Q.** What about the AUC(0-t) [1, 5] of the same compound?
**A.** 1100 ng·h/mL

**Q.** What about the Cmax [1, 5] of the same compound?
**A.** 496 ng/mL

**Q.** And the half-life [1, 5]?
**A.** 1.03 h

**Q.** And the CL/F ([1]; female, Sprague-Dawley, rat, plasma, sc, 10 mg/kg, female SD rats, s.c. 10.0 mg/kg daily x14 d, 14th dose, plasma, LC-MS/MS)?
**A.** 150 mL/min/kg

**Q.** And the MRT at 14 days ([1]; female, Sprague-Dawley, rat, plasma, sc, 10 mg/kg, female SD rats, s.c. 10.0 mg/kg daily x14 d, 14th dose, plasma, LC-MS/MS, read-out: MRTInf_obs (mean residence time))?
**A.** 1.91 h

**Q.** And the AUC_%Extrap_obs ([1]; male SD rats, s.c. 10.0 mg/kg daily x14 d, 1st dose, plasma, LC-MS/MS)?
**A.** 0.807%

**Q.** What about the T max ([1]; male SD rats, s.c. 10.0 mg/kg daily x14 d, 1st dose, plasma, LC-MS/MS, 10 mg/kg) of the same compound?
**A.** 1 h

**Q.** And the AUC_%Extrap_obs ([1]; male SD rats, s.c. 10.0 mg/kg daily x14 d, 14th dose, plasma, LC-MS/MS)?
**A.** 0.365%

**Q.** And the AUC(0-inf) [1, 6]?
**A.** 1910 ng·h/mL

**Q.** What about the AUC(0-t) [1, 6] of the same compound?
**A.** 1890 ng·h/mL

**Q.** And the Cmax [1, 6]?
**A.** 591 ng/mL

**Q.** And the half-life [1, 6]?
**A.** 4.58 h

**Q.** What about the CL/F ([1]; male, Sprague-Dawley, rat, plasma, sc, 10 mg/kg, male SD rats, s.c. 10.0 mg/kg daily x14 d, 1st dose, plasma, LC-MS/MS) of the same compound?
**A.** 87.5 mL/min/kg

**Q.** What about the Tmax ([1]; male, Sprague-Dawley, rat, plasma, sc, 10 mg/kg, male SD rats, s.c. 10.0 mg/kg daily x14 d, 1st dose, plasma, LC-MS/MS, read-out: T max) of the same compound?
**A.** 1 h

**Q.** And the AUC(0-inf) [1, 7]?
**A.** 1270 ng·h/mL

**Q.** What about the AUC(0-t) [1, 7] of the same compound?
**A.** 1270 ng·h/mL

**Q.** And the Cmax [1, 7]?
**A.** 527 ng/mL

**Q.** What about the half-life [1, 7] of the same compound?
**A.** 0.894 h

**Q.** What about the CL/F ([1]; male, Sprague-Dawley, rat, plasma, sc, 10 mg/kg, male SD rats, s.c. 10.0 mg/kg daily x14 d, 14th dose, plasma, LC-MS/MS) of the same compound?
**A.** 131 mL/min/kg

**Q.** What about the MRT at 14 days ([1]; male, Sprague-Dawley, rat, plasma, sc, 10 mg/kg, male SD rats, s.c. 10.0 mg/kg daily x14 d, 14th dose, plasma, LC-MS/MS, read-out: MRTInf_obs (mean residence time)) of the same compound?
**A.** 2.06 h

**Q.** What about the Tmax ([1]; male, Sprague-Dawley, rat, plasma, sc, 10 mg/kg, male SD rats, s.c. 10.0 mg/kg daily x14 d, 14th dose, plasma, LC-MS/MS, read-out: T max) of the same compound?
**A.** 0.5 h

**Q.** And the “histopathologic examination of essential organs” value [2]?
**A.** no apparent abnormalities

Reference: paper PMC9363195, “Preclinical Pharmacokinetics, Biodistribution, and Acute Toxicity Evaluation of Caerin 1.9 Peptide in Sprague Dawley Rats” (Evidence-based Complementary and Alternative Medicine : eCAM, 2022)
